Experiments:
[1] = tested on: human mammary tumoral lineage T-47D; assay: Clonogenic test (soft agar), growth of cellular colonies; assay type: cell-based; conditions: T-47D; for mean number of cellular colonies in relation to control / activity at 0.01 µM / activity at 0.001 µM / activity at 0.0001 µM / activity at 0.1 µM: 21 days, control = 100%; for activity at 0.01 µM / activity at 0.001 µM / activity at 0.0001 µM / activity at 0.1 µM: Homo sapiens, T47D, 504 h, read-out: mean number of cellular colonies in relation to control; for activity at 0.1 µM: 10^-7 M; for effect on growth of cellular colonies (in words): soft agar
Excerpt: The human tumour stem cells are the clonogenic cells which are the origin of the neoplasic cells which constitute a given tumour. These tumour stem cells are responsible for the recidivism process observable after surgical resection of the primary tumours and are also responsible for the formation of metastases. […] At the level of a tumour or of a tumoral cellular lineage, these clonogenic stem cells distinguish themselves from other clonogenic cells of the tumour or of the neoplasic cellular lineage being considered, by the fact that they preserve their ability to proliferate in the absence of any solid support.
This technique is suitable for the culturing in vitro of most of the tumours and tumoral cellular lineages of various histological types. In the context of this test, the neoplastic cells are cultured on a semi-solid culture medium "soft agar" made up of a mixture of agar and agarose. On this selective support, only tumoral stem cells survive and proliferate. […] The morphological characteristics and the growth of the cellular colonies are also a function of the histological type of the tumours being considered.
These culture conditions are also called "anchorage-independent" conditions.
The base medium "MEM 25 MM HEPES" (Minimum Essential Medium, Life Technologies, Belgium) contains Eagle salts but no L-glutamine. This medium is well suited to the growth of a range of varied diploid cells or primary mammal cells. To this medium is then added:
The tumoral cells are maintained in culture in 25 cm^2 falcon dishes (Life Technologies, Belgium). They are then trypsinised and individualised. Their rate of viability is determined by coloration with trypan blue (Sigma, Belgium). It must be greater than 90%. In the case where this condition is kept to, a cellular suspension at the desired concentration is prepared in a solution of agar at 0. 3%. The cells are then seeded between two layers of agar (Sigma, Belgium) and in 35 mm Petri dishes (Life Technologies, Belgium). The base layer is made up of a 0.5% solution of agar and the top layer is made up of a 0.3% solution of agar. The cupules are then positioned and held in an incubator at 37° C. and 5% of CO2. […] After treatment, the cupules are kept in the incubator for 21 days. It is advisable to examine, during the course of the experiment, the appearance and the increase of the cellular colonies. If after 10 days, no colony appears or is developing, the experiment must be repeated. In the contrary case, on the 21st day, 100 μl of an MTT solution (3-(4,5-dimethylthiazol-2-yl)-2,5 diphenyl tetrazolium bromide; Sigma, Belgium) dissolved in the RPMI culture medium (Roswell park Memorial Institute, Life Technologies, Belgium), at the concentration of 1 mg/ml are deposited on the top layer of the group of cupules. The cells are kept in contact with this solution for a minimum of 3 hours at 37° C.
Using an inverted microscope at low magnification, the number of clones whose surface area is greater thar. 100 μm^2 is determined for the group of cupules representing all the different experimental conditions. Then, for each of these experimental conditions, the mean number of cellular colonies±the standard error on the mean (ESM) is calculated.
The mean number of cellular colonies determined for each experimental condition is expressed as a percentage in relation to the control condition made equal to 100%.

[2] = tested on: ZR-75-1 human mammary cancer cells; assay: MTT test, proliferation of ZR-75-1; assay type: cell-based; conditions: Homo sapiens, 72 h, control = 100%, read-out: level of proliferation; for activity at 100 µM: ZR-75-1, 10^-4 M; for activity at 1 µM: ZR-75-1, 10^-6 M; for activity at 0.01 µM: ZR-75-1, 10^-8 M
Description: (§1) The cells that were cultured came from the ATCC (American Type Culture Collection).
(§2) The cellular lines are kept in culture in a monolayer at 37° C. in closed culture dishes (Nunc. Gibco BRL, Life Technologies, Belgium) containing the minimum essential medium (MEM, Gibco) supplemented with 5% of Foetal Calf Serum, (FCS, Gibco), 0.6 mg/ml of glutamine (Gibco) and a mixture of 200 IU/mi of penicillin (Gibco), 200 μg/ml of streptomycin (Gibco) and 0.1 mg/ml of gentamycin (Gibco). The foetal calf serum is decomplemented for 1 hour at 56° C.
(§3) This test is based on the mitochondrial reduction by living metabolically active cells of the MTT (3-(4,5-dimethylthiazol-2-yl)-2,5-diphenyltetrazolium bromide) of yellowish colour into a blue coloured product, formazan. The quantity of formazan obtained is directly proportional to the number of living cells. After incubation of the cells for 24 hours in microplates with 96 flat bottomed wells, the culture medium is replaced by 100 μl of fresh culture medium containing the drug to be tested.
(§4) The microplates are then incubated for 3 hours at 37° C. and centrifuged for 10 minutes at 400 g (GPR centrifuge, Beckman). The MTT solution is replaced by 100 μl of dimethylsulphoxide (Merck). The microplates are agitated (Vari-Shaker, Dynatech) for 10 minutes.
(§5) In the microplates, the control cells like the treated cells were incubated in a medium without the compounds to be tested for 24 hours. The control cells are incubated in a medium without a drug throughout the whole experiment, while the treated cells are incubated in different media. These media contain the molecule to be tested at various concentrations: 10^-8 M, 10^-6 M and 10^-4 M. All the tests are carried out in 6 duplicates.
(§6) The statistical comparisons are carried out according to the Fisher Test:
(§7) The mean optical density measured for each experimental condition is expressed as a percentage in relation to the laid down control condition being equal to 100%.

[3] = tested on: T-47D human mammary cancer cells; assay: MTT test, proliferation of T-47D; assay type: cell-based; conditions: Homo sapiens, T47D, T-47D, 72 h, control = 100%, read-out: level of proliferation; for activity at 100 µM: 10^-4 M; for activity at 1 µM: 10^-6 M; for activity at 0.01 µM: 10^-8 M
Description: as §1, §2, §3, §4, §5, §6, §7

[4] = tested on: A549 human pulmonary cancer cells; assay: MTT test, proliferation of A549; assay type: cell-based; conditions: Homo sapiens, 72 h, control = 100%, read-out: level of proliferation
[5] = tested on: A-427 human pulmonary cancer cells; assay: MTT test, proliferation of A-427; conditions: Homo sapiens, A-427, 72 h, read-out: level of proliferation
[6] = tested on: AP-1, MTLN lineage (MCF-7); assay: Anti-AP-1 effect, MTLN lineage activated by TPA; assay type: cell-based, human
Description: (§8) Certain properties of the retinoids have been determined using more developed cellular models. These models consist of cellular lineages transfected in a stable fashion by recombinant plasmids which place the expression of the gene of the luciferase under the control of different nuclear response elements. […] The tests carried out in duplicate are described below for each of these models.
The anti-factor AP-1 transrepressor effect of retinoids is determined using the MTLN lineage, coming from MCF-7 cells transfected in a stable fashion by a vector p(TRE)3 -tk-Luc which places the expression of the gene of luciferase under the control of […]. TPA activates the AP-1 complex formed from proteins of the family of nuclear proto-oncogenes (c-Jun and c-Fos). […] The experiments are made with the MTLN cells activated by 10^-7 M TPA.
The effect of the compounds on the MTLN cells activated by 10^-7 M TPA is expressed as a percentage. […] The inhibitive properties of the products are calculated after deduction of the base activity of the cells. The percentages reported correspond to a range of inhibitions determined from several experiments.

[7] = tested on: ERE-βGlob-Luc, MELN lineage (MCF-7); assay: Anti-oestrogenic effect, MELN lineage activated by estradiol; assay type: cell-based, human
Excerpt: as §8
MCF-7 cells express RARα,γ and RXRα. The transfection of MCF-7 cells by an oestrogen-dependent gene (ERE-βGlob-Luc) has permitted the establishment of the MELN cellular lineage, used to determine the anti-oestrogenic activity of the retinoids. These cells contain the gene of the luciferase under the transcriptional control of the promoter of the βGlobine and of the response element ERE isolated from the gene of chicken vitelogenine A2. The experiments are carried out with MELN cells activated by 10^-9 M estradiol. The level of base activity of the MELN cells is obtained with the anti-oestrogen 1 μM 4-OH-tamoxifen (hydroxytamoxifen).
The effect of the products tested on the cells activated by 10^-9 M estradiol is expressed as a percentage, the level of base activity being deducted.

## Cc1cc2c(cc1/C=C1/CCc3cc(-c4nnn[nH]4)ccc31)C(C)(C)CCC2(C)C [CB02981]
[1]; 10^-8 M, 0.01 µM
  mean number of cellular colonies in relation to control: 48.8 ± 5.3%
[1]; 10^-9 M, 0.001 µM
  mean number of cellular colonies in relation to control: 67.6 ± 8.9%
[1]; 10^-10 M, 0.0001 µM
  mean number of cellular colonies in relation to control: 80.1 ± 13.2%

## C/C(=C/c1cc2c(cc1C)C(C)(C)CCC2(C)C)c1ccc(-c2nnn[nH]2)cc1 [CB61692]
[2]
  activity at 100 µM: 0%
  activity at 1 µM: 89.5%
  activity at 0.01 µM: 93.2%
[3]
  activity at 100 µM: 0%
  activity at 1 µM: 93.8%
  activity at 0.01 µM: 106%
[4]; A549, 10^-4 M
  activity at 100 µM: 0%
[4]; A549, 10^-6 M
  activity at 1 µM: 98.2%
[4]; A549, 10^-8 M
  activity at 0.01 µM: 106%
[5]
  activity at 0.01 µM: 105%
  activity at 1 µM: 107%
  activity at 100 µM: 0.6%
[1]; 10^-8 M
  activity at 0.01 µM: 55.7 ± 2.6%
[1]; 10^-9 M
  activity at 0.001 µM: 41.5 ± 5.7%
[1]; 10^-10 M
  activity at 0.0001 µM: 90.3 ± 4.7%

## CC1=C(/C=C/C(C)=C/C=C/C(C)=C/C(=O)Nc2ccc(O)cc2)C(C)(C)CCC1 [CB05764, reference compound]
[2]
  activity at 100 µM: 0.6%
  activity at 1 µM: 81.9%
  activity at 0.01 µM: 97.3%
[3]
  activity at 100 µM: 0%
  activity at 1 µM: 66.4%
  activity at 0.01 µM: 82.5%
[1]
  activity at 0.1 µM: 18.8%
  effect on growth of cellular colonies (in words): strongly active at concentration 10^-7 M loses its significant inhibiting activity beyond the concentration of 10^-9 M
[1]; 10^-8 M
  activity at 0.01 µM: 33.6%
[1]; 10^-9 M
  activity at 0.001 µM: 83.3%
[1]; 10^-10 M
  activity at 0.0001 µM: 80.3%

## Cc1cc2c(cc1/C=C1\CCc3cc(C(=O)O)ccc31)C(C)(C)CCC2(C)C [CB40341]
[1]; 10^-8 M, 0.01 µM
  mean number of cellular colonies in relation to control: 65.6 ± 9.5%
[1]; 10^-9 M, 0.001 µM
  mean number of cellular colonies in relation to control: 90.8 ± 0.8%
[1]; 10^-10 M, 0.0001 µM
  mean number of cellular colonies in relation to control: 99.1 ± 9.7%

## CC1(C)CCC(C)(C)c2cc(C(=O)Nc3ccc(C(=O)O)cc3)ccc21 [Am580, 4-[(5,6,7,8-tetrahydro-5,5,8,8-tetramethyl-2-naphthalenyl)carboxamido]benzoic acid, reference compound]
[6]; Homo sapiens, MCF7, 10^-7 M, cells activated by 10^-7 M TPA, range of several experiments, read-out: anti-AP-1 effect, inhibition
  inhibition at 0.1 µM: 41 to 48%
[6]; Homo sapiens, MCF7, 10^-8 M, cells activated by 10^-7 M TPA, range of several experiments, read-out: anti-AP-1 effect, inhibition
  inhibition at 0.01 µM: 40 to 46%
[7]; Homo sapiens, MCF7, 10^-8 M, cells activated by 10^-9 M estradiol, read-out: anti-oestrogenic effect, inhibition
  inhibition at 0.01 µM: 36 to 51%
[7]; MELN, estradiol 10^-9 M
  anti-oestrogenic effect, inhibition (of the order of): ~40%

## C/C(=C/c1ccc2c(c1)C(C)(C)CCC2(C)C)c1cc(C(=O)O)no1 [CB73069]
[7]; Homo sapiens, MCF7, 10^-6 M, cells activated by 10^-9 M estradiol
  inhibition: 17 to 21%

## CCCCCCCOc1cc2c(cc1/C(C)=C/c1ccc(C(=O)O)cc1)C(C)(C)CCS2(=O)=O [Ro 41-5253, reference compound]
[6]; TPA-activated MTLN cells
  anti-AP-1 effect (in words): does not allow the inhibition induced by TTNPB to be totally lifted
[7]; estradiol-activated MELN cells
  anti-oestrogenic effect (in words): raises the inhibitor effect of Am580 and also of TTNPB

## CC/C(=C(\c1ccccc1)c1ccc(OCCN(C)C)cc1)c1ccccc1 [CB58707, tamoxifen, reference compound]
[1]
  activity at 0.1 µM: 31.3%
  effect on growth of cellular colonies (in words): significant inhibition in the growth of these colonies but its activity is not dose dependent
[1]; 10^-8 M
  activity at 0.01 µM: 46.9%
[1]; 10^-9 M
  activity at 0.001 µM: 35.5%
[1]; 10^-10 M
  activity at 0.0001 µM: 56.7%

Source: patent publication US6265423A, “Aromatic polycyclic retinoid-type derivatives, method for preparing same, and use thereof for making pharmaceutical and cosmetic compositions” (priority 1996, dated 2001)
